{
  "source": "paper PMC8746970",
  "about": "“Determination of the Peptide AWRK6 in Rat Plasma by Liquid Chromatography-Tandem Mass Spectrometry (LC-MS/MS) and Its Application to Pharmacokinetics” (Molecules, 2021)",
  "assay": "Stability of AWRK6 QC samples in rat plasma under storage conditions",
  "format": "in vitro ADME",
  "settings": "for measured concentration of QC sample after storage / relative error of QC sample after storage: rat plasma QC, LC-MS/MS, n = 3; for measured concentration of QC sample after storage: mean ± SD",
  "procedure": "The AWRK6 and IS were dissolved in water at 1.0 mg/mL for stock solution. The AWRK6 calibration standards at 0.05, 0.1, 0.5, 1, 2, 5, and 10 μg/mL were prepared by mixing 50 μL of working solution and 100 μL of blank plasma individually. QC samples of AWRK6 at 0.1, 0.5, and 5 μg/mL were prepared by the same method. The thawed plasma samples (100 μL) were mixed with 50 μL water (or QC), 50 μL IS (1 μg/mL), and 20 μL FA-water (25:75, v/v). A combination of plasma precipitation and liquid–liquid extraction was applied for the extraction of AWRK6 in samples. After adding 200 μL methanol and 100 μL dichloromethane, the mixtures were vortexed for 30 s and centrifuged at 14,000 g for 10 min. The supernatant was filtered by 0.22 μm membrane for LC-MS/MS analysis.\nThe method was validated for specificity, linearity, LOD, LOQ, LLOQ, precision, accuracy, recovery, matrix effect, and stability according to U.S. FDA guidelines. Specificity was determined using blank plasma samples from 6 rats. Linearity was accessed using calibration standards in triplicate within 3 consecutive days. LOD and LOQ were estimated as concentrations of AWRK6 which generated S/N value of 3 or 10, and they were verified by continuous evaluating the S/N value of 3 LOD samples or 6 LOQ samples. LLOQ was determined using 6 calibration standard samples at 0.05 μg/mL. Precision and accuracy were accessed using QC samples and repeated 6 times within 3 consecutive days. Recovery was calculated by comparing the respective peak areas of the QC samples with the blank plasma samples spiked after extraction (repeated 6 times). Matrix effect was evaluated by comparing the respective peak areas of the QC samples with standard solutions (AWRK6 and IS in water, respectively) at the same concentrations (repeated 6 times). Stability was analyzed using QC samples under different storage conditions including room temperature for 6 h, 3 freeze–thaw cycles, 4 °C for 12 h, and−20 °C for 7 days.",
  "key": {"[1]": {"settings": "nominal 0.100 μg/mL, room temperature for 6 h"}, "[2]": {"settings": "nominal 0.100 μg/mL, storage at 4 °C for 12 h"}, "[3]": {"settings": "nominal 0.100 μg/mL, storage at −20 °C for 7 days"}, "[4]": {"settings": "nominal 0.100 μg/mL, three freeze–thaw cycles"}, "[5]": {"settings": "nominal 0.500 μg/mL, room temperature for 6 h"}, "[6]": {"settings": "nominal 0.500 μg/mL, storage at 4 °C for 12 h"}, "[7]": {"settings": "nominal 0.500 μg/mL, storage at −20 °C for 7 days"}, "[8]": {"settings": "nominal 0.500 μg/mL, three freeze–thaw cycles"}, "[9]": {"settings": "nominal 5.000 μg/mL, storage at 4 °C for 12 h"}, "[10]": {"settings": "nominal 5.000 μg/mL, storage at −20 °C for 7 days"}, "[11]": {"settings": "nominal 5.000 μg/mL, three freeze–thaw cycles"}},
  "note": "No end group written: not given here.",
  "data": [
    {"substance": "SWVGKHGKKFGLKKHKKH-NH2 (C-terminus assumed) [AWRK6]", "values": [
      {"measurement": "relative error of QC samples (stability acceptable)", "setting": "rat plasma QC 0.1, 0.5, 5 μg/mL, room temperature for 6 h, 3 freeze–thaw cycles, and 4 °C for 12 h", "value": "< 12", "unit": "%"},
      {"measurement": "relative error of QC samples (significant degradation)", "setting": "rat plasma QC 0.1, 0.5, 5 μg/mL, storage at −20 °C for 7 days", "value": "−16.94 to −34.74", "unit": "%"},
      {"measurement": "measured concentration of QC sample after storage", "setting": "[1]", "value": "0.089 ± 0.007", "unit": "µg/mL"},
      {"measurement": "relative error of QC sample after storage", "setting": "[1]", "value": "−6.315", "unit": "%"},
      {"measurement": "measured concentration of QC sample after storage", "setting": "[2]", "value": "0.084 ± 0.013", "unit": "µg/mL"},
      {"measurement": "relative error of QC sample after storage", "setting": "[2]", "value": "−11.579", "unit": "%"},
      {"measurement": "measured concentration of QC sample after storage", "setting": "[3]", "value": "0.062 ± 0.018", "unit": "µg/mL"},
      {"measurement": "relative error of QC sample after storage", "setting": "[3]", "value": "−34.737", "unit": "%"},
      {"measurement": "measured concentration of QC sample after storage", "setting": "[4]", "value": "0.091 ± 0.008", "unit": "µg/mL"},
      {"measurement": "relative error of QC sample after storage", "setting": "[4]", "value": "−4.210", "unit": "%"},
      {"measurement": "measured concentration of QC sample after storage", "setting": "[5]", "value": "0.462 ± 0.021", "unit": "µg/mL"},
      {"measurement": "relative error of QC sample after storage", "setting": "[5]", "value": "−4.742", "unit": "%"},
      {"measurement": "measured concentration of QC sample after storage", "setting": "[6]", "value": "0.442 ± 0.015", "unit": "µg/mL"},
      {"measurement": "relative error of QC sample after storage", "setting": "[6]", "value": "−8.866", "unit": "%"},
      {"measurement": "measured concentration of QC sample after storage", "setting": "[7]", "value": "0.387 ± 0.047", "unit": "µg/mL"},
      {"measurement": "relative error of QC sample after storage", "setting": "[7]", "value": "−20.206", "unit": "%"},
      {"measurement": "measured concentration of QC sample after storage", "setting": "[8]", "value": "0.477 ± 0.016", "unit": "µg/mL"},
      {"measurement": "relative error of QC sample after storage", "setting": "[8]", "value": "−1.649", "unit": "%"},
      {"measurement": "measured concentration of QC sample after storage", "setting": "[9]", "value": "4.881 ± 0.301", "unit": "µg/mL"},
      {"measurement": "relative error of QC sample after storage", "setting": "[9]", "value": "−1.040", "unit": "%"},
      {"measurement": "measured concentration of QC sample after storage", "setting": "[10]", "value": "4.153 ± 0.442", "unit": "µg/mL"},
      {"measurement": "relative error of QC sample after storage", "setting": "[10]", "value": "−16.940", "unit": "%"},
      {"measurement": "measured concentration of QC sample after storage", "setting": "[11]", "value": "4.912 ± 0.049", "unit": "µg/mL"},
      {"measurement": "relative error of QC sample after storage", "setting": "[11]", "value": "−0.409", "unit": "%"}
    ]}
  ]
}
